Drawing on patent US20240199647A1, “ANTI-VIRAL COMPOUNDS” (Aligos Therapeutics, Inc., priority 2022, published 2024), this text covers IC50, EC50 and CC50 for 17 molecules.

Where two headings read alike, the source gives them in different places. Some results are limits rather than exact numbers.

One series has as its target SARS-Cov-2 3CLpro (Severe acute respiratory syndrome coronavirus 2, UniProt P0DTD1). Briefly: biochemical. The following applies: Table A, class symbols, read-out: SARS-Cov-2 (IC50).
Series [1] relates to human beta-coronavirus OC43. Nature of the series: OC43 Coronavirus Assay in HeLa cells (antiviral, cytopathic effect, cell-titer-glo). The series is classed as cell-based. The following applies: Betacoronavirus 1, OC43, HeLa, Table B, OC43 coronavirus in HeLa cells, read-out: EC50.
Series [2] deals with SARS-CoV-2 B.1.1.7 lineage. Nature of the series: microbe, parasite or virus in culture. The format is cell-based. The following applies: Severe acute respiratory syndrome coronavirus 2, Table C, SARS-CoV-2 B.1.1.7 in A549-dual_ACE2_TMPRSS2 cells, read-out: A549-dual_ACE2_TMPRSS2 (EC50).
Another series is described as follows: in vitro. The following applies: human.
Series [3] can be described thus: Cytotoxicity in HeLa cells without addition of OC43 virus (in parallel). The following applies: human, HeLa cells, without OC43 virus.

As to `CN(C(=O)[C@H](CC1CC1)NC(=O)C(F)(F)F)[C@@H](CC(C)(C)C)C(=O)N1C[C@@]2(C[C@H]1C#N)Oc1ccccc1CNC2=O` [Compound 164], the half-maximal inhibitory concentration (IC50) on SARS-Cov-2 3CLpro is < 0.02 µM. Further, the half-maximal effective concentration (EC50) in series [1] (class symbols) and in series [2] (class symbols) was < 0.1 µM each time. In addition, the CC50 in “in vitro” is > 1 µM. Also, the CC50 at 6 days in series [3] was > 10 µM.

Take `CN(C(=O)[C@@H]1CC[C@@H](c2ccccc2)N1)[C@@H](CC1CC1)C(=O)N1C[C@@]2(C[C@H]1C#N)Oc1cc(F)cc(F)c1NC2=O` [Compound 111, (2S,5S)—N—((S)-1-((2R,5'S)-5′-cyano-5,7-difluoro-3-oxo-3,4-dihydrospiro[benzo[b][1,4]oxazine-2,3′-pyrrolidin]-1′-yl)-3-cyclopropyl-1-oxopropan-2-yl)-N-methyl-5-phenylpyrrolidine-2-carboxamide]: on SARS-Cov-2 3CLpro, the half-maximal inhibitory concentration (IC50) was < 0.02 µM. The EC50 in series [1] (class symbols) and in series [2] (class symbols) was 0.1 to 1 µM each time. Also, the CC50 in “in vitro” was > 1 µM. Moreover, in series [3], the CC50 at 6 days is > 10 µM.

Turning to `CN(C(=O)[C@H](CC1CC1)NC(=O)C(F)(F)F)[C@@H](CC1CC1)C(=O)N1C[C@@]2(C[C@H]1C#N)Oc1cc(C(=O)N3CCOCC3)ccc1NC2=O` [Compound 143], on SARS-Cov-2 3CLpro, the IC50 is < 0.02 µM. Also, the concentration giving a half-maximal response (EC50) in series [1] (class symbols) was < 0.1 µM; in series [2] (class symbols), 0.1 to 1 µM. Moreover, the CC50 in “in vitro” was > 1 µM. Further, in series [3], the CC50 at 6 days is > 10 µM.

`CN(C(=O)c1cc2c(F)cc(F)c(F)c2[nH]1)[C@@H](CC1CC1)C(=O)N1C[C@@]2(C[C@H]1C#N)Oc1cccc(F)c1NC2=O` [Compound 97]: the IC50 at SARS-Cov-2 3CLpro is < 0.02 µM. For the same molecule, the figures for the EC50 in series [1] (class symbols) and in series [2] (class symbols) were < 0.1 µM and 0.1 to 1 µM, respectively. Further, in “in vitro”, the CC50 is > 1 µM. In series [3], the CC50 at 6 days is > 10 µM.

With `CC(C)C[C@@H](C(=O)N1C[C@@]2(C[C@H]1C#N)N=C(C1CC1)NC2=O)N(C)C(=O)[C@H](C)NC(=O)C(F)(F)F` [Compound 16], on SARS-Cov-2 3CLpro, the IC50 lay in the range of 0.02 to 0.2 µM. In addition, the values for the 50% effective concentration (EC50) in series [1] (class symbols) and in series [2] (cells given as a bound) were 0.1 to 1 µM and > 1 µM, respectively. The CC50 in the series “in vitro” was > 1 µM. The CC50 at 6 days in series [3] was > 10 µM.

With `CN(C(=O)[C@H](CC1CC1)NC(=O)C(F)(F)F)[C@@H](CC(C)(C)F)C(=O)N1C[C@@]2(CC1C#N)Oc1cc(F)cc(F)c1NC2=O` (stereo partly shown) [Compound 54], on SARS-Cov-2 3CLpro, the IC50 was < 0.02 µM. In addition, the half-maximal effective concentration (EC50) in series [1] (class symbols) is < 0.1 µM; in series [2] (class symbols), 0.1 to 1 µM. Besides, the CC50 in the series “in vitro” is > 1 µM. Further, in series [3], the CC50 at 6 days is > 10 µM.

In the case of `C[C@H](NC(=O)C(F)(F)F)C(=O)N(C)[C@@H](Cc1ccc(F)cc1)C(=O)N1C[C@@]2(C[C@H]1C#N)Oc1cccnc1NC2=O` [Compound 181], the IC50 at SARS-Cov-2 3CLpro was < 0.02 µM. The EC50 in series [1] (class symbols) was in the range of 1 to 10 µM; in series [2] (class symbols), 0.1 to 1 µM. In addition, the CC50 in “in vitro” was > 1 µM. Also, the CC50 at 6 days in series [3] was > 10 µM.

As for `CN(C(=O)[C@H](COCc1ccccc1)NC(=O)C(F)(F)F)[C@@H](CC1CC1)C(=O)N1C[C@@]2(C[C@H]1C#N)Oc1cccnc1NC2=O` [Compound 191], the IC50 at SARS-Cov-2 3CLpro is < 0.02 µM. Further, the values for the EC50 in series [1] (class symbols) and in series [2] (class symbols) were < 0.1 µM and 0.1 to 1 µM, respectively. The CC50 in “in vitro” is > 1 µM. For the same molecule, the CC50 at 6 days in series [3] was > 10 µM.

As to `CC(C)C[C@@H](C(=O)N1C[C@@]2(C[C@H]1C#N)OCc1ccccc1NC2=O)N(C)C(=O)c1cc2c(F)cc(F)cc2[nH]1` [Example 4, N—((S)-1-((3R,5'S)-5′-cyano-2-oxo-1,5-dihydro-2H-spiro[benzo[e][1,4]oxazepine-3,3′-pyrrolidin]-1′-yl)-4-methyl-1-oxopentan-2-yl)-4,6-difluoro-N-methyl-1H-indole-2-carboxamide], on SARS-Cov-2 3CLpro, the concentration for half-maximal inhibition (IC50) lay within 0.02 to 0.2 µM. Further, the EC50 in series [1] (cells given as a bound) was > 1 µM; in series [2] (class symbols) it was 1 to 10 µM. Besides, the CC50 in “in vitro” was > 1 µM. Also, in series [3], the CC50 at 6 days is > 10 µM.

`CN(C(=O)[C@H](CC1CC1)NC(=O)C(F)(F)F)[C@@H](CC1CC1)C(=O)N1C[C@@]2(C[C@H]1C#N)Oc1ccccc1C1(CC1)NC2=O` [Compound 113]: the IC50 at SARS-Cov-2 3CLpro fell in the range of 0.02 to 0.2 µM. Besides, the EC50 in series [1] (class symbols) was 0.1 to 1 µM; in series [2] (cells given as a bound), > 1 µM. Besides, the CC50 in the series “in vitro” is > 1 µM. Also, in series [3], the CC50 at 6 days was > 10 µM.

As to `CN(C(=O)[C@H](CC1CC1)NC(=O)C(F)(F)F)[C@@H](CC1CC1)C(=O)N1C[C@@]2(C[C@H]1C#N)Oc1cc(F)cnc1NC2=O` [Compound 67], at SARS-Cov-2 3CLpro, the IC50 was < 0.02 µM. Moreover, the EC50 in series [1] (class symbols) was < 0.1 µM; in series [2] (class symbols), 0.1 to 1 µM. In addition, the CC50 in “in vitro” was > 1 µM. The CC50 at 6 days in series [3] was > 10 µM.

As to `CN(C(=O)[C@H](COc1ccccc1)NC(=O)C(F)(F)F)[C@@H](CC1CC1)C(=O)N1C[C@@]2(C[C@H]1C#N)Oc1cccnc1NC2=O` [Compound 202], the IC50 on SARS-Cov-2 3CLpro was < 0.02 µM. The results for the EC50 in series [1] (class symbols) and in series [2] (cells given as a bound) were 0.1 to 1 µM and > 1 µM, respectively. For the same molecule, the CC50 in the series “in vitro” is > 1 µM. The CC50 at 6 days in series [3] is > 10 µM.

Turning to `CN(C(=O)[C@H](CC(C)(C)C)NC(=O)C(F)(F)F)[C@@H](CC1CC1)C(=O)N1C[C@@]2(C[C@H]1C#N)Oc1cccnc1NC2=O` [Compound 188], the IC50 on SARS-Cov-2 3CLpro was < 0.02 µM. Moreover, the concentration for a half-maximal effect (EC50) in series [1] (class symbols) and in series [2] (class symbols) was < 0.1 µM in each case. Further, the CC50 in “in vitro” was > 1 µM. Further, the CC50 at 6 days in series [3] was > 10 µM.

For the molecule `CC(C)C[C@@H](C(=O)N1C[C@@]2(C[C@H]1C#N)CC(C)(C)NC2=O)N(C)C(=O)[C@H](C)NC(=O)C(F)(F)F` [Compound 22], the IC50 on SARS-Cov-2 3CLpro was in the range of 0.02 to 0.2 µM. For the same molecule, the figures for the EC50 in series [1] (class symbols) and in series [2] (cells given as a bound) were 1 to 10 µM and > 1 µM, respectively. Besides, in “in vitro”, the CC50 was > 1 µM. In addition, the CC50 at 6 days in series [3] was > 10 µM.

With `CC(C)C[C@@H](C(=O)N1C[C@]2(CC(c3ccccc3)=NNC2=O)C[C@H]1C#N)N(C)C(=O)[C@H](C)NC(=O)C(F)(F)F` [Example 29, (S)—N—((S)-1-((3S,5R)-3-cyano-6-oxo-9-phenyl-2,7,8-triazaspiro[4.5]dec-8-en-2-yl)-4-methyl-1-oxopentan-2-yl)-N-methyl-2-(2,2,2-trifluoroacetamido)propanamide], the IC50 at SARS-Cov-2 3CLpro was 0.02 to 0.2 µM. The EC50 in series [1] (class symbols) is 1 to 10 µM; in series [2] (class symbols) it was 0.1 to 1 µM. Further, the CC50 in the series “in vitro” was > 1 µM. In addition, the CC50 at 6 days in series [3] is > 10 µM.

Take `CC(C)C[C@@H](C(=O)N1C[C@@]2(C[C@H]1C#N)Oc1cc(Cl)cc(F)c1NC2=O)N(C)C(=O)[C@H](C)NC(=O)C(F)(F)F` [Compound 58]: at SARS-Cov-2 3CLpro, the IC50 is < 0.02 µM. The EC50 in series [1] (class symbols) and in series [2] (class symbols) was 0.1 to 1 µM throughout. Besides, in the series “in vitro”, the CC50 is > 1 µM. The CC50 at 6 days in series [3] was > 10 µM.

For `CN(C(=O)[C@H](CC1CC1)n1cc(C2CC2)nn1)[C@@H](CC1CC1)C(=O)N1C[C@@]2(C[C@H]1C#N)Oc1cc(F)cc(F)c1NC2=O` [Compound 108, (S)—N—((S)-1-((2R,5'S)-5′-cyano-5,7-difluoro-3-oxo-3,4-dihydrospiro[benzo[b][1,4]oxazine-2,3′-pyrrolidin]-1′-yl)-3-cyclopropyl-1-oxopropan-2-yl)-3-cyclopropyl-2-(4-cyclopropyl-1H-1,2,3-triazol-1-yl)-N-methylpropanamide], the IC50 at SARS-Cov-2 3CLpro is < 0.02 µM. For the same molecule, the values for the EC50 in series [1] (class symbols) and in series [2] (class symbols) were 0.1 to 1 µM and < 0.1 µM, respectively. The CC50 in the series “in vitro” is > 1 µM. The CC50 at 6 days in series [3] was > 10 µM.

A word on the IC50: it is the midpoint of a concentration-inhibition curve. As a reminder, the EC50 is the concentration that produces a half-maximal response.
